{
  "source": "patent EP0728482A2",
  "about": "“Use of hcp specific compounds to enhance erythropoiesis” (SMITHKLINE BEECHAM CORPORATION, priority 1995, dated 1996)",
  "target": "T1, human lck SH2 domain (Homo sapiens, UniProt P06239)",
  "T1 construct": "made in house; host or cells: E. coli AR120",
  "T1 sequence (P06239 127-224 limits assumed)": "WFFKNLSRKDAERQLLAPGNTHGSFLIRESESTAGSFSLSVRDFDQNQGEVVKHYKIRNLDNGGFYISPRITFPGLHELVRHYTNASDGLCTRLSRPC",
  "test": "ELISA-based SH2 domain / pY peptide binding assay, lck SH2 domain",
  "details": "inhibition of binding of 0.1 uM biotinylated pY peptide to SH2 domain fusion protein",
  "method": "The inhibitory activity of compounds at the different human SH2 domains was determined in vitro using SH2 domains expressed as fusion proteins in E. coli. The SH2 domains used herein were the human forms of the src SH2 domain, Grb2 SH2 domain, lck SH2 domain, fyn SH2 domain, SH-PTP2 SH2 domain, p85 SH2 domain and hcp SH2 domain.\nThe fusion proteins containing the src, lck and hcp SH2 domains were expressed as the general sequence: DET1-DET2-spacer-ek-SH2, where DET1, DET2, spacer, ek and SH2 are as described below. DET1 (\"defined epitope tag 1\") (SEQ ID NO: 1) is an 11 amino acid sequence found in the Human Immunodeficiency Virus Type 1 (HIV-1) envelope protein gp120 (or gp160). Monoclonal antibodies to various epitopes of HIV-1 gp120 (or gp 160) are known in the art, see, for example U.S. Patent 5,166,050. One preferred example is monoclonal antibody 178.1 (see, e.g., Thiriart et al., J. Immunol., 143:1832-1836 (1989)), which was prepared by immunization of mice with a yeast-expressed HIV-1 gp160 molecule from strain BH10 (Ratner et al., Nature, 313:277-284 (1985)). This tag was used for detection of expression (by Western blot), for purification of the protein (by affinity chromatography), and for configuring assays in which the fusion protein was captured or immobilized using the 178.1 antibody. […]",
  "data": [
    {"smiles": "CCCCCCNC(=O)[C@H]1CC[C@H](CNC(=O)c2ccc(C(=O)c3ccc(C(=O)O)cc3)cc2)CC1", "note": "[Compound 6, 4-carboxy-benzophenone-4-carboxamido-trans-4-methyl-cyclohexyl-N-hexyl carboxamide]", "values": [
      {"measurement": "IC50", "result": "> 300", "unit": "µM"}
    ]}
  ]
}
